ChEMBL document CHEMBL5230123, “A comprehensive review of monoamine oxidase inhibitors as Anti-Alzheimer's disease agents: A review” (Eur J Med Chem, 2020)

Legend:
Acetylcholinesterase = Acetylcholinesterase (Electrophorus electricus, UniProt O42275); assay: Inhibition of electric eel AChE using acetylthiocholine iodide as substrate incubated for 15 mins by Ellman's method
[1] = target: T1, Amine oxidase [flavin-containing] A (Homo sapiens, UniProt P21397); assay: Inhibition of human MAO-A assessed as inhibition constant using kynuramine as substrate
T1 sequence (P21397 whole entry): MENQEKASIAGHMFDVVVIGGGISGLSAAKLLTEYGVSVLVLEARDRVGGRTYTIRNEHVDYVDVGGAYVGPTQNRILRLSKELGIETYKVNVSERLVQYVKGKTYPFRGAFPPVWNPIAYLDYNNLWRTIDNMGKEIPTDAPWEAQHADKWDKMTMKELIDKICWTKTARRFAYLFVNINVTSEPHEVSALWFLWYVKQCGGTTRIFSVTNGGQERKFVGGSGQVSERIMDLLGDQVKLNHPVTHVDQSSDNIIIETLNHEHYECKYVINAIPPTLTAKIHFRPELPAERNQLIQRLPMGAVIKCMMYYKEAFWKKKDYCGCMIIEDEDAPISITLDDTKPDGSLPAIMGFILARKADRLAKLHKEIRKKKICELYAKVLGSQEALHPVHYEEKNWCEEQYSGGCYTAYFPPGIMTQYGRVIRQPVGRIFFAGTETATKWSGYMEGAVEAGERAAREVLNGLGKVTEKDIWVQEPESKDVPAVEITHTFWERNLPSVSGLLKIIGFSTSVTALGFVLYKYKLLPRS

[2] = target: T2, Amine oxidase [flavin-containing] B (Homo sapiens, UniProt P27338); assay: Inhibition of human MAO-B using benzylamine as substrate
T2 sequence (P27338 whole entry): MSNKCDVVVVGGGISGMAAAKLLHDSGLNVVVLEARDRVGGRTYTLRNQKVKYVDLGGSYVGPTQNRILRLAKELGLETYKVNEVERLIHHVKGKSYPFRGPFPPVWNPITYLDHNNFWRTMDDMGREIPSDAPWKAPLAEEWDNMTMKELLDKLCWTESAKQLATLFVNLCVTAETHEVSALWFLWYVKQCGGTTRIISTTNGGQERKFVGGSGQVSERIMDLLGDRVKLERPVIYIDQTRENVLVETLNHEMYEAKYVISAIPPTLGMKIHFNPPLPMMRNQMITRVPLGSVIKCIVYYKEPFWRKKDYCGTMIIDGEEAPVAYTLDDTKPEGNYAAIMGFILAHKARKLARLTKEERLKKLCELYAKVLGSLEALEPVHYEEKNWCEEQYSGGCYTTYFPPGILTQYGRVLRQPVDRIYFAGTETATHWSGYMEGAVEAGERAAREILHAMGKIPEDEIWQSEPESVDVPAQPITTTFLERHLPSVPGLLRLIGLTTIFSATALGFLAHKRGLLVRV

[3] = target: T2, Amine oxidase [flavin-containing] B; assay: Inhibition of human MAO-B using tyramine hydrochloride as substrate preincubated for 30 mins followed by substrate addition and measured after 30 mins by fluorescence assay
[4] = target: T2, Amine oxidase [flavin-containing] B; assay: Inhibition of human MAO-B assessed as inhibition constant using benzylamine as substrate
[5] = target: T1, Amine oxidase [flavin-containing] A; assay: Mixed type inhibition of human MAO-A assessed as inhibition constant by Lineweaver-Burk plot analysis
[6] = target: T2, Amine oxidase [flavin-containing] B; assay: Inhibition of human MAO-B

Chain of Acetylcholinesterase (O42275 whole entry): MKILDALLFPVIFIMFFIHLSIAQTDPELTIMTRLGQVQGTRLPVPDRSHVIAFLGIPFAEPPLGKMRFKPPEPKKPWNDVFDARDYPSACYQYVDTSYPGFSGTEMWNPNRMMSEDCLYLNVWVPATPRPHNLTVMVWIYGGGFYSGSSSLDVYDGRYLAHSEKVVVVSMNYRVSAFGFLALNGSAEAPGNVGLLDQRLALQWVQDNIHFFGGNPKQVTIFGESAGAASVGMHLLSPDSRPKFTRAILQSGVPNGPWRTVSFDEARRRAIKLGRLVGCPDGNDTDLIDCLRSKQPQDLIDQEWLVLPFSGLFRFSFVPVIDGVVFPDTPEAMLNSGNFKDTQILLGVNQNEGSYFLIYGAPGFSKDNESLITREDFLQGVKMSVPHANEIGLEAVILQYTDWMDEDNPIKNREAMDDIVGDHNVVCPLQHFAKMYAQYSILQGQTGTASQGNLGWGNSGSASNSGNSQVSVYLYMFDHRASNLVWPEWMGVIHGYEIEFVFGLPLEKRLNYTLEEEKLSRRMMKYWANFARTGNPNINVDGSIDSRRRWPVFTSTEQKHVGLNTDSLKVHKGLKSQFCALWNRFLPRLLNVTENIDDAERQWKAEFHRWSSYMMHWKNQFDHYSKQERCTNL

**Q.** For `C#CCN1C(=O)/C(=N/NC(=O)c2ccc3c(c2)OCO3)c2ccccc21`, which IC50 (Acetylcholinesterase) is on record?
**A.** Its IC50 is 52 nM.

**Q.** For `COc1cc(/C=C/C(=O)CC(=O)/C=C/c2ccc(O)cc2)ccc1O`, which Ki [1] is on record?
**A.** The Ki was 910 nM.

**Q.** What about the IC50 [2] of the same compound?
**A.** The IC50 was 2450 nM.

**Q.** For `O=C(CSC(=S)N1CCN(c2ccc([N+](=O)[O-])cc2)CC1)N(Cc1ccc([N+](=O)[O-])cc1)c1ccc(F)cc1`, which IC50 [3] is on record?
**A.** The IC50 was 97 nM.

**Q.** How did the Ki [4] turn out when `O=C(/C=C/c1ccc(O)cc1)CC(=O)/C=C/c1ccc(O)cc1` [BISDEMETHOXYCURCUMIN] was run?
**A.** The Ki was 800 nM.

**Q.** And the IC50 [2]?
**A.** The IC50 was 2590 nM.

**Q.** Which results are given for `COc1cc(O)c2c(=O)oc3cc(O)cc(C)c3c2c1`?
**A.** Ki [5]: 340 nM; IC50 [6]: > 80000 nM
